Key:
Format in all cases: cell-based
[1] = molecular target: T1, SCD5 (Homo sapiens, UniProt Q86SK9); test: Growth inhibition of humanized yeast strain expressing SCD5 as sole desaturase; details: for half-maximal inhibitory concentration (IC50): SCD5 humanized strain, FIG. 6
T1 construct: host or cells: S. cerevisiae ole1Δ strain (W303 pdr1Δ pdr3Δ background), plasmid pRS316 with TDH3 promoter and CYC1 terminator
T1 sequence (Q86SK9 1-330): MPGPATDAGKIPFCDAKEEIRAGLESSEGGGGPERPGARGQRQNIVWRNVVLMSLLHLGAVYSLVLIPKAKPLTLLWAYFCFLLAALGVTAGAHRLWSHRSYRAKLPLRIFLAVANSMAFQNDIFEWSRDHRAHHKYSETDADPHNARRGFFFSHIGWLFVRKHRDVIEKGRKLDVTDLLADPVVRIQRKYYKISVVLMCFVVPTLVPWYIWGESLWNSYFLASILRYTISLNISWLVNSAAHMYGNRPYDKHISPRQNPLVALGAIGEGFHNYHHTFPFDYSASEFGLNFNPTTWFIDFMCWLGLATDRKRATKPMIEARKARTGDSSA
Summary of the method: (§1)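 Yeast ole1Δ strain (W303 pdr1Δ pdr3Δ background) carrying plasmid-borne Ole1, SCD1 or SCD5 as sole desaturase was grown in uracil-lacking media, pre-cultured in raffinose for 6 h, then seeded in galactose medium with compound in DMSO. Growth was read as OD600 after 30° C. incubation: 24 h for Ole1, 40 h for SCD1/SCD5.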

[2] = molecular target: T2, Ole1 (Saccharomyces cerevisiae, UniProt P21147); test: Growth inhibition of yeast strain expressing Ole1 as sole desaturase; details: for growth of yeast expressing OLE1 in presence of inhibitor: FIG. 6; for IC50 / OLE1 % Max Inhibition: yeast strain expressing Ole1 as sole desaturase
T2 construct: expressed in transfected cells; host or cells: S. cerevisiae ole1Δ strain (W303 pdr1Δ pdr3Δ background), plasmid pRS316 with TDH3 promoter and CYC1 terminator
T2 sequence (P21147 1-510): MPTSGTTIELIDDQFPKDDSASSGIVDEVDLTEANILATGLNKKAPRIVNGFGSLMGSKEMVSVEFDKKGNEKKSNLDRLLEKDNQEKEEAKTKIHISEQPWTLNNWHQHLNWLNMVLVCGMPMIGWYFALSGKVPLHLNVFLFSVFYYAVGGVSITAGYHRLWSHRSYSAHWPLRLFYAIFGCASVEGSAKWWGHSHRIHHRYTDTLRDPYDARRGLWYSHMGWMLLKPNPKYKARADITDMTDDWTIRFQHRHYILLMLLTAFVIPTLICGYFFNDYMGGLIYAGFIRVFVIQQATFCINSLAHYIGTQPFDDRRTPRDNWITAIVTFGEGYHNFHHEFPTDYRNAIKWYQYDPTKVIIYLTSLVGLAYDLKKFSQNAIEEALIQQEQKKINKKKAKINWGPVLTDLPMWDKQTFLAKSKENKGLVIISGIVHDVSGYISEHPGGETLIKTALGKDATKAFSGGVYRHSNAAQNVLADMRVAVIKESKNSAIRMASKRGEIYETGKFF
Procedure: Strain oleΔ (yeast ole1 deletion mutant) was constructed by deleting OLE1 with NAT-MX6 in BY4741, amplifying the deletion cassette from the genomic DNA of the resulting strain with primers flanking the ORF by 1000 bp upstream and downstream, transforming the resulting deletion cassette into W303 pdr1Δ pdr3Δ, and plating transformants on YPD media containing G418 (200 μg/mL) and nourseothricin ([…]) with 0.01% TWEEN®-20 and 0.5 mM oleic and palmitoleic acids.
The coding sequence of yeast OLE1 was also cloned into this plasmid). These clones were then transformed into the ole1Δ strain and plated on CSM-Ura media (CSM lacking uracil) with 2% glucose (w/v) and independent colonies were isolated and amplified.
All compound profiling experiments were performed using the same basic protocol. Different genetic backgrounds (e.g., gene deletions) or conditions (e.g., addition of oleic and palmitoleic acid) were replaced as indicated below.
Yeast were cultured using standard techniques in complete synthetic media (CSM) and yeast nitrogen base supplemented with 2% (w/v) carbon source (glucose, raffinose, or galactose) to regulate the expression of the toxic disease protein. An initial starter culture was inoculated in 3 mL CSM-Glucose media and incubated overnight in a 30° C. shaker incubator (225 rpm). Saturated morning cultures were then diluted 1:20 in fresh CSM-Raffinose media and grown for 6 h to an OD600 (optical density) of ˜0.4-0.8 at 30° C. with shaking.
Compound administration was performed in two separate steps. First, 15 μL of CSM-Galactose (induces expression of toxic protein) was dispensed into clear 384 well assay plates using a MULTIDROP™ Combi reagent dispenser. […] The cultures described above were then diluted to a 2× concentration (0.03 and 0.08 for alpha-synuclein and ApoE, final ODsoo of 0.015 and 0.04) in CSM-Galactose. For wild-type and Ole1/SCD1/SCD5 plasmid-containing strains, the 2× cell density was 0.02. […] For 96-well assays (FIGS. 1A and 1B), compound dilutions in DMSO were generated in 96 well plates and 1 μL was manually pipetted into 96 well clear bottom assay plates.
For experiments using a plasmid-borne copy of Ole1, SCD1, or SCD5 (FIGS. 3B, 6, and 7), media lacking uracil (SX-Ura, where X is glucose, raffinose, or galactose), was used for all steps of the compound profiling protocol to ensure its maintenance throughout the assay.
After yeast delivery, assay plates were incubated under humidified conditions at 30° C. for 24 to 40 h. ApoE4 rescue experiments were stopped at 24 h, aSyn experiments at 40 h, Ole1 at 24 h, and SCD1/SCD5 at 40 h. The growth of yeast was monitored by reading the ODsoo of each well using a microplate reader (Perkin Elmer EnVision™).

[3] = molecular target: T3, SCD1 (Homo sapiens, UniProt O00767); test: Growth inhibition of humanized yeast strain expressing SCD1 as sole desaturase
T3 construct: host or cells: S. cerevisiae ole1Δ strain (W303 pdr1Δ pdr3Δ background), plasmid pRS316 with TDH3 promoter and CYC1 terminator
T3 sequence (O00767 1-359): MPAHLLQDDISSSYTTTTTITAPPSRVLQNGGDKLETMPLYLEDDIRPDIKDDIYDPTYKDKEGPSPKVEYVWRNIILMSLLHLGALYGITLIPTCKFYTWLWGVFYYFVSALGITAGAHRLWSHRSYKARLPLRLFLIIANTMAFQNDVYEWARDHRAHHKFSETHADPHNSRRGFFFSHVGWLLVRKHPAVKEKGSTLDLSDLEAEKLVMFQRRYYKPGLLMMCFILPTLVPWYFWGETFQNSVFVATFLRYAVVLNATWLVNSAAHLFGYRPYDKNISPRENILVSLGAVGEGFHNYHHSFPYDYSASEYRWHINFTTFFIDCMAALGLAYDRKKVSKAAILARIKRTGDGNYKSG
Summary of the method: as §1

[4] = humanized yeast strain expressing SCD5
[5] = humanized yeast strain expressing SCD1
[6] = yeast strain expressing human SCD5 as sole desaturase, Table 8
[7] = yeast strain expressing human SCD1 as sole desaturase, Table 8

SMILES | IC50 [1, 4] [µM] | IC50 [2] [µM] | SCD5 % Max Inhibition [1, 4] [%] | OLE1 % Max Inhibition [2] [%] | IC50 ([1]; humanized yeast strain, 40 h) [µM] | IC50 ([3]; humanized yeast strain, 40 h) [µM] | other results
Cc1nnc(-c2ccc(N3CCC(Oc4cc(F)ccc4Cl)CC3)nn2)o1 [CAY10566, reference compound] |  |  |  |  |  |  | half-maximal inhibitory concentration (IC50) [1]: low nanomolar; growth of yeast expressing OLE1 in presence of inhibitor [2]: resistant; half-maximal inhibitory concentration (IC50) ([3]; SCD1 humanized strain, FIG. 6): low nanomolar
O=C(C1CCN(c2nc(-c3ccccc3)no2)CC1)N1CCOCC1 [Compound 5] | 24.5 | > 45 |  |  |  |  | IC50 [3, 5]: > 45 µM
COc1ccc(-c2noc(C3CCN(C(=O)CNCc4ccccc4)CC3)n2)cc1OC [Compound 30] | > 45 | > 45 | 74.17 | 100.46 |  |  | IC50 [3, 5]: > 45 µM; SCD1 % Max Inhibition [3, 5]: 80.58%
COc1ccc(-c2noc(C3CCN(C(=O)CN)CC3)n2)cc1OC [Compound 75] | 30 | > 45 |  |  |  |  | IC50 [3, 5]: > 45 µM
Cc1nn(C)c2cc(-c3noc(C4CCN(C(=O)C5CNC(=O)C5)CC4)n3)ccc12 (centres unmarked) [Compound 126] | 30 | > 45 | 79.08 | 73.29 |  |  | IC50 [3, 5]: > 45 µM; SCD1 % Max Inhibition [3, 5]: 69.80%
CCN(Cc1nc(-c2ccccc2)no1)C(=O)Cc1cccc2ccccc12 [Compound 156] | > 45 | 37.1 | 22.37 | 63.63 |  |  | IC50 [3, 5]: > 45 µM; SCD1 % Max Inhibition [3, 5]: 72.58%
CCN(Cc1nc(-c2ccc(OC)c(OC)c2)no1)C(=O)Cc1cccc2ccccc12 [Compound 157] | > 45 | > 45 | 72.54 | 91.55 |  |  | IC50 [3, 5]: > 45 µM; SCD1 % Max Inhibition [3, 5]: 80.54%
CC(C)n1ncc2ccc(-c3noc(C4CCN(C(=O)c5cccc(F)c5)CC4)n3)cc21 [Compound 344] | > 45 | > 45 | 1.1 | 7.14 |  |  | 
CC(C)n1ncc2ccc(-c3noc(C4CCN(C(=O)c5ccccc5Cl)CC4)n3)cc21 [Compound 345] | > 45 | > 45 | 2.2 | 6.63 |  |  | 
CC(C)n1ncc2ccc(-c3noc(C4CCN(C(=O)c5ccccc5)CC4)n3)cc21 [Compound 346] | > 45 | > 45 | 1.1 | 12.12 |  |  | 
O=C(C1CC(=O)N(c2cccc(Cl)c2)C1)N1CCC(c2nc(Cl)no2)CC1 (centres unmarked) [Compound 348] |  | > 45 | 59.2 | 74.78 |  |  | 
CC(C)n1ncc2ccc(-c3noc(N4CCN(C(=O)OC(C)(C)C)CC4)n3)cc21 [Compound 349] | > 45 | > 45 | 0.2 | 84.00 |  |  | 
N#Cc1cccc(N2CC(C(=O)N3CCC(c4nc(Cl)no4)CC3)CC2=O)c1 (centres unmarked) [Compound 350] |  | > 45 | 56.3 | 71.00 |  |  | 
O=C(c1ccccc1)N1CCC(c2nc(Cl)no2)CC1 [Compound 351] |  | > 45 | 57.3 | 68.60 |  |  | 
CC(C)c1ccc(C(=O)N2CCC(c3nc(Cl)no3)CC2)cc1 [Compound 352] | > 45 | > 45 | 44.5 | 71.57 |  |  | 
CC(C)C(=O)N1CCC(c2noc(-c3ccnc(-c4ccn(C)n4)c3)n2)CC1 [Compound 1184] |  |  |  |  | > 45 | > 45 | 
Cn1ccc(-c2cc(-c3nc(C4CCN(C(=O)OC5(C)CC5)CC4)no3)ccn2)n1 [Compound 1185] |  |  |  |  | > 45 | > 45 | 
Cn1cc(-c2cc(-c3nc(C4CCN(C(=O)OC5(C)CC5)CC4)no3)ccn2)cn1 [Compound 1186] |  |  |  |  | 6.08 | 10 | 
CC(C)C(=O)N1CCC(c2noc(-c3ccnc(-c4cnn(C)c4)c3)n2)CC1 [Compound 1187] |  |  |  |  | > 45 | > 45 | 
CC(C)C(=O)N1CCC(c2noc(-c3cccc(C4CCOC4)n3)n2)CC1 (centres unmarked) [Compound 1188] |  |  |  |  | > 45 | > 45 | 
CC(C)(C)OC(=O)N1CCC(c2noc(-c3cccc(C4CCOC4)n3)n2)CC1 (centres unmarked) [Compound 1189] |  |  |  |  | 7.72 | > 45 | 
CC(C)(C)OC(=O)N1CCC(c2noc(-c3cncc(C4CCOC4)c3)n2)CC1 (centres unmarked) [Compound 1190] |  |  |  |  | 0.06 | > 45 | 
COC(=O)N1CCC(c2noc(-c3cccc(C4CCO4)c3)n2)CC1 (centres unmarked) [Compound 1191] |  |  |  |  | 1.36 | > 45 | 
CC(C)(C)OC(=O)N1CCC(c2noc(-c3cc(C4CCOC4)ccn3)n2)CC1 (centres unmarked) [Compound 1192] |  |  |  |  | 0.04 | > 45 | 
CC1(OC(=O)N2CCC(c3noc(N4CCc5c(cnn5C5COC5)C4)n3)CC2)CC1 [Compound 1193] |  |  |  |  | > 45 | > 45 | 
CC(C)C(=O)N1CCC(c2noc(N3CCc4c(cnn4C4COC4)C3)n2)CC1 [Compound 1194] |  |  |  |  | > 45 | > 45 | 
CC(C)C(=O)N1CCC(c2noc(N3CCc4nn(C5COC5)cc4C3)n2)CC1 [Compound 1195] |  |  |  |  | > 45 | > 45 | 
CC(C)(C)OC(=O)N1CCC(c2cc(-c3cnc4cnn(C5CCOC5)c4c3)on2)CC1 (centres unmarked) [Compound 1233] |  |  |  |  |  |  | IC50 [1, 6]: 6.54 µM; IC50 [3, 7]: 24.7 µM
COC(=O)N1CCC(c2noc(-c3ccnc(-c4cnn(C)c4)c3)n2)CC1 [Compound 1265] |  |  |  |  |  |  | IC50 [1, 6]: 11 µM; IC50 [3, 7]: 13.5 µM
O=C(O)Cn1nnc(-c2cc(N3CCC(Oc4cc(F)ccc4Br)CC3)no2)n1 [MK-8245, reference compound] |  |  |  |  |  |  | half-maximal inhibitory concentration (IC50) [1]: low nanomolar; growth of yeast expressing OLE1 in presence of inhibitor [2]: resistant
